Test results from US20170204197A1, “Goodpasture Antigen Binding Protein Detection and Inhibition and its Use in Diabetes” (FibroStatin, S.L., priority 2013, published 2017).

Assays:
A549 cells = experiment: Glucose uptake by A549 cells under increased extracellular glucose (FIG. 2B); type: cell-based; settings: DMEM:F-12 (315 mg glucose/dL), increasing concentrations of T12, 14 h
Description: (§1) FIG. 2. […] A, A549 cells were cultured in DMEM plus 10% fetal bovine serum and penicillin/streptomycin with the indicated concentrations of glucose during 24 h. Then cells were lysed in 25 mM Tris-HCl pH 7.5, 150 mM NaCl, 1% Triton X-100, 0.1% SDS, 1 mM PMSF, 10 μg/mL leupeptin, 20 mM NaF at 4° C. during 30 min. Lysates were cleared by centrifugation at 16,000×g for 5 min (4° C.) and the protein concentration of supernatants was determined (Bio-Rad). […] Development was performed with Amersham ECL Prime Western Blotting Detection Reagent (GE Healthcare Lifesciences) and image acquisition with an ImageQuant LAS 4000 Mini device (GE Healthcare Lifesciences). […] After incubations cells were lysed as in A and protein concentrations in supernatants were similarly assessed. Glucose concentrations in the media were determined at the beginning and at the end of the incubation period with a Glucocard G+ meter (Arkray Factory, Inc.), and glucose uptake by cells was calculated using the protein concentrations of the corresponding lysates for normalization purposes.
(§2) A, A549 cells were cultured in DMEM plus 10% fetal bovine serum and penicillin/streptomycin with the indicated concentrations of glucose during 24 h. […] Lysates were cleared by centrifugation at 16,000×g for 5 min (4° C.) and the protein concentration of supernatants was determined (Bio-Rad). […]

[1] = system: C2Cl2 mouse myoblasts differentiated to myotubes; experiment: Glucose concentration in media of C2Cl2 myotubes at physiological glucose (FIG. 3); type: cell-based; settings: initial glucose 115 mg/dL, T12 50 μM, indicated times
Description: C2Cl2 mouse myoblasts were differentiated to myotubes in DMEM supplemented with 2% horse serum and penicillin/streptomycin during 10 days, and then incubated in DMEM plus 0.25% horse serum with an initial glucose concentration of 115 mg/dL, in absence or presence of T12 (50 μM) during the indicated times. Glucose concentrations in media were determined with a Glucocard™ G+ meter (Arkray Factory, Inc.). Shown are means±SEM (n=2). […] C2Cl2 mouse myoblasts were differentiated to myotubes in DMEM supplemented with 2% horse serum and penicillin/streptomycin during 10 days, and then incubated in DMEM plus 0.25% horse serum with an initial glucose concentration of 115 mg/dL, in absence or presence of T12 (50 μM) during the indicated times. Glucose concentrations in media were determined with a Glucocard™ G+ meter (Arkray Factory, Inc.). Shown are means±SEM (n=2).

[2] = system: AS160 protein phosphorylated at Ser 318 (P Ser 318 AS160); experiment: Western blot for AS160 phosphorylated at Ser 318 in A549 lysates (FIG. 2C); type: cell-based; settings: A549 cells, DMEM:F-12 (315 mg glucose/dL), T12 50 μM, 20 h
Description: as §1, §2

GPBP = biological target: T1, GPBP (Homo sapiens, UniProt Q9Y5P4); settings: from WO 2004/070025, WO 2011/054530, U.S. Pat. No. 8,586,776, WO2014/006020; cited from earlier work
T1 sequence (Q9Y5P4 1-624): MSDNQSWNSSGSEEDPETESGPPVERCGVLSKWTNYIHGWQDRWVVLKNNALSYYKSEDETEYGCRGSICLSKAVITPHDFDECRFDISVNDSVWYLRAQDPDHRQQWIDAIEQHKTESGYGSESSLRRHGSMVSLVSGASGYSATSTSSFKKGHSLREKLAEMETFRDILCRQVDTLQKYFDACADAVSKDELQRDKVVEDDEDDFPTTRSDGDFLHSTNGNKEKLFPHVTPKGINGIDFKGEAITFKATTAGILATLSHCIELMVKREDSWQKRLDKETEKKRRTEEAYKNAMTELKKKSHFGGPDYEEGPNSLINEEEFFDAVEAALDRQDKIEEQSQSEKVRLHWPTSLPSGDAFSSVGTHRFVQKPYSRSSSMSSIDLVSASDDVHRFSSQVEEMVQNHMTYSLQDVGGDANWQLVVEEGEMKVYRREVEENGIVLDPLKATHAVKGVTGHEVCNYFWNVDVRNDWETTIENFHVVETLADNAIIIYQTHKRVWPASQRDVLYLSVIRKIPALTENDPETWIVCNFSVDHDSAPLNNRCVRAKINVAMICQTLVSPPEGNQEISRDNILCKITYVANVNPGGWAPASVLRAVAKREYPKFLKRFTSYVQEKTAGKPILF

Compound | glucose uptake (A549 cells) | extracellular glucose levels [1] | phosphorylation of AS160 (Ser 318) [2] | inhibition of GPBP kinase activity (GPBP)
COc1ccc(-c2ccc(-c3cccc(C)c3)c(C)c2)c(CCC(=O)O)c1 [T12, 3-[4″-methoxy-3,2′-dimethyl-(1,1′;4′,1″)terphenyl-2″-yl]propionic acid] | progressively enhanced glucose uptake | reduced the extracellular glucose levels in a concentration-dependent manner | induced phosphorylation of AS160 | –
COc1cccc2c1C(=O)c1c(O)c3c(c(O)c1C2=O)C[C@@](O)(C(=O)CO)C[C@@H]3O[C@H]1C[C@H](N)[C@H](O)[C@H](C)O1 [doxorubicin] | – | – | – | inhibit GPBP kinase activity
Q2: isolated peptide representing 260SHCIE264 and flanking regions (LATLSHCIELMVKR) (SEQ ID NO: 8) | – | – | – | efficiently inhibited GPBP kinase activity
